The values that follow come from PubChem BioAssay AID588390 (Sanford-Burnham Center for Chemical Genomics, 2011).

The source made the active and inactive calls. No rule for the calls is given here.

By IC50 is commonly meant the midpoint of a concentration-inhibition curve.

Chain of Ubiquitin-conjugating enzyme E2 N (Homo sapiens) (P61088 whole entry, looked up): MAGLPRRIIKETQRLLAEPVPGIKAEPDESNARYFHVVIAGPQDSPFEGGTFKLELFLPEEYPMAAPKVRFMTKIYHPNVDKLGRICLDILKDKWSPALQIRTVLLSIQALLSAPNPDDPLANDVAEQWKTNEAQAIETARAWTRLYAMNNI

The experiment has as its target Ubiquitin-conjugating enzyme E2 N (Homo sapiens) (UniProt P61088). Put plainly: potency of analogues against UBC13 chain formation – biochemical, TR-FRET, set 2, SAR follow-up (AID 588390). The note with it: UBC13 polyubiquitination.
As for `O=C(CN1CCC(n2cnc3cc(F)ccc32)CC1)Nc1ccccc1Br`, the IC50 entry is “inactive”.

As to `Cc1nc2ccccc2n1C1CCN(CC(=O)Nc2ccccc2Oc2ccccc2)CC1`, the IC50 is > 100 µM (inactive).

As for `CC1(C)Cc2c(sc(NC(=O)C(=O)NCCN3CCOCC3)c2C(N)=O)CO1`, the IC50 is 1.34 µM.

`COC(=O)c1c(NC(=O)C(=O)NCC2CCCO2)sc2c1CC(C)(C)OC2` (configuration not stated): the IC50 was 4.25 µM.

Turning to `O=C(NCCCN1CCN(c2ccccc2)CC1)C1CCCN(c2ncnc3c2nc2n3CCCCC2)C1` (configuration not stated), the IC50 was 3.3 µM.

For `Cc1nc2cc(F)ccc2n1C1CCN(CC(=O)Nc2ccccc2)CC1`, the IC50 is > 100 µM (inactive).

Consider `O=C(C1CCN(c2ncnc3c2nc2n3CCCCC2)CC1)N1CCN(c2ncccn2)CC1`, for which the IC50 is > 100 µM (inactive).

Take `COc1ccccc1N1CCN(CCCNC(=O)C2CCCN(c3ncnc4c3nc3n4CCCCC3)C2)CC1` (configuration not stated): the IC50 result is “inactive”.

For `CCOc1ccccc1NC(=O)CN1CCC(n2cnc3cc(F)ccc32)CC1`, the IC50 was 4 µM.

On to `COc1ccc(OC)c(NC(=O)CN2CCC(n3c(C)nc4cc(F)ccc43)CC2)c1`, for which the IC50 result was “inactive”.

In the case of `O=C(C1CCN(c2ncnc3c2nc2n3CCCCC2)CC1)N1CCN(c2ccccn2)CC1`, the IC50 result is “inactive”.

In the case of `O=C(CN1CCC(n2c(C(F)(F)F)nc3cc(F)ccc32)CC1)Nc1ccc2c(c1)OCO2`, the IC50 was > 100 µM (inactive).

For `CCOc1ccc(NC(=O)CN2CCC(n3cnc4cc(F)ccc43)CC2)cc1`, the IC50 is > 100 µM (inactive).

Turning to `Cc1cccc(N2CCN(CCCNC(=O)C3CCCN(c4ncnc5c4nc4n5CCCCC4)C3)CC2C)c1` (configuration not stated), the IC50 result is “inactive”.

Turning to `COc1ccc(NC(=O)CN2CCC(n3c(C)nc4cc(F)ccc43)CC2)c(OC)c1`, the IC50 is > 100 µM (inactive).

`O=C(CN1CCC(n2cnc3cc(F)ccc32)CC1)Nc1cccc(C(F)(F)F)c1`: the IC50 is > 100 µM (inactive).

Regarding `Cc1ccc(C)c(N2CCN(CCCNC(=O)C3CCCN(c4ncnc5c4nc4n5CCCCC4)C3)CC2)c1` (configuration not stated), the IC50 was 9.81 µM.

On to `CC1(C)Cc2c(sc(NC(=O)C(=O)NCC3CCCO3)c2C(=O)O)CO1` (configuration not stated), for which the IC50 entry was “inactive”.

As for `O=C(C1CCN(c2ncnc3c2nc2n3CCCCC2)CC1)N1CCN(c2ccc(F)cc2)CC1`, the IC50 entry was “inactive”.

In the case of `COc1ccc(OC)c(NC(=O)CN2CCC(n3cnc4cc(F)ccc43)CC2)c1`, the IC50 result is “inactive”.

For `O=C(NCCCN1CCN(c2ccc(F)cc2)CC1)C1CCCN(c2ncnc3c2nc2n3CCCCC2)C1` (configuration not stated), the IC50 was 2.91 µM.

`O=C(c1ccco1)N1CCN(C(=O)C2CCN(c3ncnc4c3nc3n4CCCCC3)CC2)CC1`: the IC50 is > 100 µM (inactive).

Regarding `Cc1cccc(NC(=O)CN2CCC(n3cnc4cc(F)ccc43)CC2)c1C`, the IC50 was > 100 µM (inactive).

As to `O=C(CN1CCC(n2cnc3cc(C(F)(F)F)ccc32)CC1)Nc1ccc2c(c1)OCCO2`, the IC50 was > 100 µM (inactive).

For `CC1(C)Cc2c(sc(NC(=O)C(=O)NCC3CCCO3)c2C(N)=O)CO1` (configuration not stated), the IC50 is 0.63 µM.

For `CC1(C)Cc2c(sc(NC(=O)C(=O)N3CCCC3)c2C(N)=O)CO1`, the IC50 was 0.58 µM.

As to `O=C(C1CCN(c2ncnc3c2nc2n3CCCCC2)CC1)N1CCN(Cc2ccccc2)CC1`, the IC50 is 2.75 µM.
